Laboratory results published in US10806871B2, “Inhalable dry powders” (priority 2012, dated 2020).

Assay: Solubility of therapeutic agents in water or ethanol
Conditions: not given

Row | SMILES | solubility in ethanol | solubility in water
1 | OCc1cc(C(O)CNCCCCCCOCCCCc2ccccc2)ccc1O (centres unmarked) [salmeterol xinafoate] | slightly soluble in ethanol | practically insoluble in water

Assay: not given
Conditions: listing, cf. PCT Publication WO/2004/062643; cited from earlier work

Row | SMILES | Solubility In Water
2 | COc1ccc2[nH]c([S+]([O-])Cc3ncc(C)c(OC)c3C)nc2c1 (centres unmarked) [Omeprazole] | Slightly
3 | CO[C@]12C[C@@H](COC(=O)c3cncc(Br)c3)CN(C)[C@@H]1Cc1cn(C)c3cccc2c13 [Nicergoline] | Insoluble
4 | OCCN(CCO)c1nc(N2CCCCC2)c2nc(N(CCO)CCO)nc(N3CCCCC3)c2n1 [Dipyridamole] | Slightly
5 | CC(=O)O[C@H]1C(=O)[C@@]2(C)[C@H]([C@H](OC(=O)c3ccccc3)[C@]3(O)C[C@H](OC(=O)[C@H](O)[C@@H](NC(=O)c4ccccc4)c4ccccc4)C(C)=C1C3(C)C)[C@]1(OC(C)=O)CO[C@@H]1C[C@@H]2O [Paclitaxel] | Insoluble
6 | CCC(C)n1ncn(-c2ccc(N3CCN(c4ccc(OCC5COC(Cn6cncn6)(c6ccc(Cl)cc6Cl)O5)cc4)CC3)cc2)c1=O (centres unmarked) [Itraconzole] | Insoluble
7 | Cc1cccc(Nc2ccccc2C(=O)O)c1C [Mefenamic acid] | Slightly
8 | CC(C(=O)O)c1ccc(-c2ccccc2)c(F)c1 (centres unmarked) [Flurbiprofen] | Slightly
9 | OC(Cn1cncn1)(Cn1cncn1)c1ccc(F)cc1F [Fluconazole] | Slightly
10 | COc1ccc(CCN2CCC(Nc3nc4ccccc4n3Cc3ccc(F)cc3)CC2)cc1 [Astemizol] | Insoluble
11 | C=CCC1(CC(C)C)C(=O)NC(=O)NC1=O [Butalbital] | Insoluble
12 | COc1cc2nc(N3CCN(C(=O)C4COc5ccccc5O4)CC3)nc(N)c2cc1OC (centres unmarked) [Doxazosin] | Slightly
13 | O=C(O)Cc1ccccc1Nc1c(Cl)cccc1Cl [Diclofenac sodium] | Sparingly
14 | Cc1ccc(-c2nc3ccc(C)cn3c2CC(=O)N(C)C)cc1 [Zolpidem] | Sparingly
15 | CO/N=C(\C(=O)N[C@@H]1C(=O)N2C(C(=O)O)=C(COC(C)=O)CS[C@H]12)c1csc(N)n1 [Cefotaxime] | Sparingly
16 | O=C1NC(=O)C(c2ccccc2)(c2ccccc2)N1 [Phenytoin] | Insoluble
17 | COCCCC/C(=N\OCCN)c1ccc(C(F)(F)F)cc1 [Fluvoxamine] | Sparingly
18 | CC(=O)OC[C@H]1O[C@@H]([S-])[C@H](OC(C)=O)[C@@H](OC(C)=O)[C@@H]1OC(C)=O.CCP(CC)CC.[Au+] [Auranofin] | Slightly soluble
19 | CCOC(=O)[C@H](CCc1ccccc1)N[C@@H](C)C(=O)N1[C@H](C(=O)O)C[C@@H]2CCC[C@@H]21 [Ramipril] | Insoluble
20 | Cc1nnc2n1-c1ccc(Cl)cc1C(c1ccccc1)=NC2 [Alprazolam] | Insoluble
21 | CC(=O)S[C@@H]1CC2=CC(=O)CC[C@]2(C)[C@H]2CC[C@@]3(C)[C@@H](CC[C@@]34CCC(=O)O4)[C@H]12 [Spironolactone] | Insoluble
22 | CC(CCc1ccc(O)cc1)NCCc1ccc(O)c(O)c1 (centres unmarked) [Dobutamine] | Sparingly
23 | OCCN1CCN(CCCN2c3ccccc3Sc3ccc(C(F)(F)F)cc32)CC1 [Fluphenazine] | Insoluble
24 | Cc1ncc2n1-c1ccc(Cl)cc1C(c1ccccc1F)=NC2 [Midazolam] | Insoluble
25 | C[C@@](Cc1ccc(O)c(O)c1)(NN)C(=O)O [Carbidopa] | Slightly
26 | CCc1cccc2c3c([nH]c12)C(CC)(CC(=O)O)OCC3 (centres unmarked) [Etodolac] | Insoluble
27 | CN1CCN(C2=Nc3cc(Cl)ccc3Nc3ccccc32)CC1 [Clozapine] | Slightly
28 | COc1cc([C@@H]2c3cc4c(cc3[C@@H](O[C@@H]3O[C@@H]5CO[C@@H](C)O[C@H]5[C@H](O)[C@H]3O)[C@H]3COC(=O)[C@H]23)OCO4)cc(OC)c1O [Etoposide] | Very Slightly
29 | NC(=O)N1c2ccccc2C=Cc2ccccc21 [Carbamazepine] | Insoluble

Row | SMILES | Solubility In Water
30 | CC1CC(OC(=O)C(O)c2ccccc2)CC(C)(C)C1 (centres unmarked) [Cyclandelate] | Insoluble
31 | COc1cc(N)c(Cl)cc1C(=O)NC1CCN(CCCOc2ccc(F)cc2)CC1OC (centres unmarked) [Cisapride] | Insoluble
32 | CCCC(CCC)C(=O)O [Divalproex] | Slightly
33 | CC1=C(/C=C/C(C)=C/C=C/C(C)=C\C(=O)O)C(C)(C)CCC1 [Isotretinoin] | Insoluble
34 | CCOC(=O)[C@H](CCc1ccccc1)N[C@@H](C)C(=O)N1CCC[C@H]1C(=O)O [Enalapril] | Sparingly
35 | C[C@@H]1C[C@H]2[C@@H]3CCC4=CC(=O)C=C[C@]4(C)[C@@]3(Cl)[C@@H](O)C[C@]2(C)[C@@]1(O)C(=O)CCl [Mometasone] | Insoluble
36 | CN1CCCC(n2nc(Cc3ccc(Cl)cc3)c3ccccc3c2=O)CC1 (centres unmarked) [Azelastine] | Insoluble
37 | CN1C(C(=O)Nc2ccccn2)=C(O)c2ccccc2S1(=O)=O [Piroxicam] | Sparingly
38 | CC(C)(C)c1ccc(C(O)CCCN2CCC(C(O)(c3ccccc3)c3ccccc3)CC2)cc1 (centres unmarked) [Terfenadine] | Slightly
39 | CCCCCc1cc(O)c2c(c1)OC(C)(C)[C@@H]1CCC(C)=C[C@@H]21 [Dronabinol] | Insoluble
40 | CN1CCC[C@@H]1CCO[C@](C)(c1ccccc1)c1ccc(Cl)cc1 [Clemastine] | Slightly soluble
41 | OC(CCN1CCCCC1)(c1ccccc1)C1CC2C=CC1C2 (centres unmarked) [Biperiden] | Sparingly soluble
42 | CN(C/C=C/C#CC(C)(C)C)Cc1cccc2ccccc12 [Terbinafine] | Slightly
43 | COc1ccc2cc(CCC(C)=O)ccc2c1 [Nabumetone] | Insoluble
44 | C[C@]12CC[C@H]3[C@@H](CCC4=CC(=O)CC[C@@]43C)[C@@H]1CC[C@@H]2O [Testosterone] | Insoluble
45 | CC[C@H]1OC(=O)[C@H](C)[C@@H](O[C@H]2C[C@@](C)(OC)[C@@H](O)[C@H](C)O2)[C@H](C)[C@@H](O[C@@H]2O[C@H](C)C[C@H](N(C)C)[C@H]2O)[C@](C)(OC)C[C@@H](C)C(=O)[C@H](C)[C@@H](O)[C@]1(C)O [Clarithromycin] | Insoluble
46 | CC(C)(C)NC(=O)[C@H]1CC[C@H]2[C@@H]3CC[C@H]4NC(=O)C=C[C@]4(C)[C@H]3CC[C@]12C [Finasteride] | Insoluble
47 | Cn1cnc([N+](=O)[O-])c1Sc1ncnc2nc[nH]c12 [Azathioprine] | Insoluble
48 | CCOC(=O)C1=C(COCCN)NC(C)=C(C(=O)OC)C1c1ccccc1Cl (centres unmarked) [Amlodipine] | Slightly
49 | CC[C@H](C)C(=O)O[C@H]1C[C@@H](C)C=C2C=C[C@H](C)[C@H](CC[C@@H]3C[C@@H](O)CC(=O)O3)[C@H]21 [Lovastatin] | Insoluble
50 | Cc1c(OCC(F)(F)F)ccnc1C[S+]([O-])c1nc2ccccc2[nH]1 (centres unmarked) [Lansoprazole] | Insoluble
51 | Nc1nnc(-c2cccc(Cl)c2Cl)c(N)n1 [Lamotrigine] | Slightly
52 | CC(=O)N1CCN(c2ccc(OCC3COC(Cn4ccnc4)(c4ccc(Cl)cc4Cl)O3)cc2)CC1 (centres unmarked) [Ketoconazole] | Insoluble
53 | CC(C)Cc1ccc(C(C)C(=O)O)cc1 (centres unmarked) [Ibuprofen] | Insoluble
54 | CCOC(=O)C1=C(C)NC(C)=C(C(=O)OC)C1c1cccc(Cl)c1Cl (centres unmarked) [Felodipine] | Insoluble
55 | Cc1nc2n(c(=O)c1CCN1CCC(c3noc4cc(F)ccc34)CC1)CCCC2 [Risperidone] | Insoluble
56 | COC(=O)C1=C(C)NC(C)=C(C(=O)OC(C)C)C1c1cccc2nonc12 (centres unmarked) [Isradipine] | Insoluble

Assay: not given
Conditions: at 20 C; cited from earlier work

Row | SMILES | solubility
57 | OC[C@H]1O[C@H](O[C@H]2O[C@H](CO)[C@@H](O)[C@H](O)[C@H]2O)[C@H](O)[C@@H](O)[C@@H]1O [trehalose] | 68.9 g per 100 g of water

Same assay, conditions: cited from earlier work

Row | SMILES | solubility in water
58 | OC[C@@H](O)[C@@H](O)[C@H](O)[C@H](O)CO [mannitol] | about 182 g/L

Assay: not given
Conditions: listing; cited from earlier work

Row | SMILES | Bioavailability
59 | CCn1cc(C(=O)O)c(=O)c2cc(F)c(N3CCNCC3)cc21 [Norfloxacin] | Low
60 | CN[C@H]1CC[C@@H](c2ccc(Cl)c(Cl)c2)c2ccccc21 [Sertraline] | Low
61 | COc1ccc(CCN2CCC(Nc3nc4ccccc4n3Cc3ccc(F)cc3)CC2)cc1 [Astemizol] | Low-moderate
62 | C#C[C@]1(O)CC[C@H]2[C@@H]3CCC4=Cc5oncc5C[C@]4(C)[C@H]3CC[C@@]21C [Danazol] | Low
63 | CCCC1O[C@@H]2C[C@H]3[C@@H]4CCC5=CC(=O)C=C[C@]5(C)[C@H]4[C@@H](O)C[C@]3(C)[C@]2(C(=O)CO)O1 (some centres unmarked) [Budesonide] | Low
64 | Nc1ccc(O)c(C(=O)O)c1 [Mesalamine] | Low
65 | CC(=O)OC[C@H]1O[C@@H]([S-])[C@H](OC(C)=O)[C@@H](OC(C)=O)[C@@H]1OC(C)=O.CCP(CC)CC.[Au+] [Auranofin] | Low
66 | CC(=O)S[C@@H]1CC2=CC(=O)CC[C@]2(C)[C@H]2CC[C@@]3(C)[C@@H](CC[C@@]34CCC(=O)O4)[C@H]12 [Spironolactone] | Low
67 | OCCN1CCN(CCCN2c3ccccc3Sc3ccc(C(F)(F)F)cc32)CC1 [Fluphenazine] | Low
68 | CC1CC(OC(=O)C(O)c2ccccc2)CC(C)(C)C1 (centres unmarked) [Cyclandelate] | Low
69 | COc1cc(N)c(Cl)cc1C(=O)NC1CCN(CCCOc2ccc(F)cc2)CC1OC (centres unmarked) [Cisapride] | Low
70 | CCCCCc1cc(O)c2c(c1)OC(C)(C)[C@@H]1CCC(C)=C[C@@H]21 [Dronabinol] | Low
71 | CN1CCC[C@@H]1CCO[C@](C)(c1ccccc1)c1ccc(Cl)cc1 [Clemastine] | Low
72 | OC(CCN1CCCCC1)(c1ccccc1)C1CC2C=CC1C2 (centres unmarked) [Biperiden] | Low
73 | COc1ccc2cc(CCC(C)=O)ccc2c1 [Nabumetone] | Low
74 | NC(N)=Nc1nc(CSCCC(N)=NS(N)(=O)=O)cs1 [Famotidine] | Low
75 | OCCN1CCN(CCCN2c3ccccc3Sc3ccc(Cl)cc32)CC1 [Perphenazine] | Low
76 | C[C@]12CC[C@H]3[C@@H](CCC4=CC(=O)CC[C@@]43C)[C@@H]1CC[C@@H]2O [Testosterone] | Low
77 | O=[N+]([O-])O[C@H]1CO[C@H]2[C@@H]1OC[C@H]2O[N+](=O)[O-] [Isosorbide dinitrate] | Low
78 | CCOC(=O)C1=C(C)NC(C)=C(C(=O)OC)C1c1cccc(Cl)c1Cl (centres unmarked) [Felodipine] | Low
79 | COC(=O)C1=C(C)NC(C)=C(C(=O)OC(C)C)C1c1cccc2nonc12 (centres unmarked) [Isradipine] | Low
